{"source": "paper PMC3674748", "about": "“High-level expression and characterization of a chimeric lipase from Rhizopus oryzae for biodiesel production” (Biotechnology for Biofuels, 2013)", "key": {"[1]": {"target": "T1, r28ROL (Rhizopus arrhizus, UniProt P61872)", "T1 construct": "Pichia pastoris GS115, secreted, purified; proROL without signal peptide cleaved Kex2-like; about 37 kDa on SDS-PAGE", "T1 sequence (P61872 96-392)": "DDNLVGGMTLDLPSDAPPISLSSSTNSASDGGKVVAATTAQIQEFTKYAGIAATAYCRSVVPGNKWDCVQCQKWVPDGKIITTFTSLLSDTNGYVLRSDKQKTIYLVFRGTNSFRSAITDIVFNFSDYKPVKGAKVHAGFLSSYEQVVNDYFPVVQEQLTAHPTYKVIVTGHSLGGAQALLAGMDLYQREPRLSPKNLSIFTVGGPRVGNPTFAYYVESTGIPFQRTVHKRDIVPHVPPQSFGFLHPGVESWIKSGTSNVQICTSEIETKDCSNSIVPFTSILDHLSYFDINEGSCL", "assay": "interfacial kinetics, p-nitrophenol release from emulsified pNPP", "assay_type": "biochemical", "settings": "heterogeneous (emulsion) medium; free purified enzyme; value not given"}, "[2]": {"target": "T2, mROL (Rhizopus arrhizus, UniProt P61872)", "T2 sequence (P61872 124-392)": "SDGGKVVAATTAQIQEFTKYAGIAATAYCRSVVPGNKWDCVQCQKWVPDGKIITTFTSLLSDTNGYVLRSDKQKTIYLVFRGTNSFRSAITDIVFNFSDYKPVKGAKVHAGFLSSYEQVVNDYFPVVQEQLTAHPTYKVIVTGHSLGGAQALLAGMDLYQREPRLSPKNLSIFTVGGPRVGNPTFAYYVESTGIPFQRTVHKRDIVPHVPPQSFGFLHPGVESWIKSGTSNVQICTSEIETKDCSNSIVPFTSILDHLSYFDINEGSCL", "assay": "residual activity after heat treatment, pNPP assay", "assay_type": "biochemical", "settings": "turnover only; 1 h pre-incubation at 40 °C"}}}
{"compound": "CCCCCCCCCCCCCCCC(=O)Oc1ccc([N+](=O)[O-])cc1", "note": "[p-nitrophenyl palmitate]", "values": [{"measurement": "Km*", "setting": "[1]", "value": "The kinetic parameters were determined using p-nitrophenyl palmitate (pNPP) as substrate."}, {"measurement": "residual activity after heat treatment, pNPP assay", "setting": "[2]", "value": "thermostability of the mature R. oryzae lipase by P. pastoris in this study"}]}
